Measurements as given in US10894817B2, “Fatty acid modified urocortin-2 analogs for the treatment of diabetes and chronic kidney disease” (priority 2016, dated 2021).
Starred links: 1 amine or outer side, 2 acyl side, 3 side chain; linkers in the order of their positions; H or OH if unused. Residues, ends and D or L forms follow the SMILES beside them. Groups on a side chain read outwards from the residue. *: point of attachment. C18 diacid = O=C(O)CCCCCCCCCCCCCCCCC(=O)*; γGlu = O=C(O)[C@H](CCC(=O)[*:2])N[*:1]; Palmitoyl = CCCCCCCCCCCCCCCC(=O)*; AEEA = NCCOCCOCC(=O)O

Molecular target: T1, human CRHR2b (Homo sapiens, UniProt Q13324)
T1 construct: expressed in transfected cells; host or cells: Chinese Hamster Ovary (CHO) cells, transient transfection
T1 sequence (Q13324 1-438 isoform Q13324-2): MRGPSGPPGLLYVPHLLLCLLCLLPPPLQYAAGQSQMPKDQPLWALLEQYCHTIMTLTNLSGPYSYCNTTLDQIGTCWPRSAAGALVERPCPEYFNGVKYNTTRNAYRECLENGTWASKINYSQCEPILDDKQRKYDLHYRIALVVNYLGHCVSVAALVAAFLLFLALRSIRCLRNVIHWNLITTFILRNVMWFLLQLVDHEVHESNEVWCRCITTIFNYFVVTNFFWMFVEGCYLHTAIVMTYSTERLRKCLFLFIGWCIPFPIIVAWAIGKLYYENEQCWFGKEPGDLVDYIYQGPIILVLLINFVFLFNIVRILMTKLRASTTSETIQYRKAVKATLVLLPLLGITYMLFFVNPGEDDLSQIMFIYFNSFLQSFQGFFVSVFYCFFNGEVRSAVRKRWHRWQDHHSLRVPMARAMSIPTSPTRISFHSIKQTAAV
Assay: human CRHR2b cell-based cAMP assay
Conditions: cAMP assay; Table 26, compounds of Example 9; read-out: hCRHR2b Average EC50
Method in brief: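 ED50 values are means ± SEM over several runs, curve-fitted from cAMP in pmol, calibrated against unlabeled-cAMP standards. Detection was HTRF competition, ratio 665/620 nm, after 30 min agonist exposure at 37 °C.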

Q: Which EC50 does the source give for `CCCCCCCCCCCCCCCC(=O)N[C@@H](CCC(=O)NCCOCCOCC(=O)NCCCC[C@H](NC(=O)[C@H](CCC(=O)O)NC(=O)[C@H](CCCCN)NC(=O)[C@H](CCC(=O)O)NC(=O)[C@H](CCC(N)=O)NC(=O)[C@H](CCCCN)NC(=O)[C@H](CCC(=O)O)NC(=O)[C@H](CCC(N)=O)NC(=O)[C@H](CCC(=O)O)NC(=O)[C@H](CC(C)C)NC(=O)[C@H](CC(C)C)NC(=O)[C@@H](NC(=O)[C@H](CCC(N)=O)NC(=O)[C@H](CC(C)C)NC(=O)[C@H](CC(C)C)NC(=O)CNC(=O)[C@@H](NC(=O)[C@@H]1CCCN1C(=O)[C@@H](NC(=O)[C@H](CC(=O)O)NC(=O)[C@H](CC(C)C)NC(=O)[C@H](CO)NC(=O)[C@H](CC(C)C)NC(=O)[C@@H](NC(=O)[C@@H](N)[C@@H](C)CC)C(C)C)C(C)C)[C@@H](C)CC)[C@@H](C)CC)C(=O)N[C@@H](CCC(N)=O)C(=O)N[C@@H](CCC(N)=O)C(=O)N[C@@H](C)C(=O)N[C@H](C(=O)N[C@H](C(=O)N[C@@H](CC(N)=O)C(=O)N[C@@H](C)C(=O)N[C@@H](CCCNC(=N)N)C(=O)N[C@H](C(=O)N[C@@H](CC(C)C)C(=O)N[C@@H](C)C(=O)N[C@@H](CCCNC(=N)N)C(=O)N[C@H](C(N)=O)C(C)C)[C@@H](C)CC)[C@@H](C)O)[C@@H](C)O)C(=O)O` [Compound 32] (H-IVLSLDVPIGLLQILLEQEKQEKEK([AEEA-γGlu-Palmitoyl])QQATTNARILARV-NH2) here?
A: Its EC50 is 9.18 nM.

Q: How did the EC50 turn out when `CC[C@H](C)[C@H](N)C(=O)N[C@H](C(=O)N[C@@H](CC(C)C)C(=O)N[C@@H](CO)C(=O)N[C@@H](CC(C)C)C(=O)N[C@@H](CC(=O)O)C(=O)N[C@H](C(=O)N1CCC[C@H]1C(=O)N[C@H](C(=O)NCC(=O)N[C@@H](CC(C)C)C(=O)N[C@@H](CC(C)C)C(=O)N[C@@H](CCC(N)=O)C(=O)N[C@@H](CCCCNC(=O)COCCOCCNC(=O)COCCOCCNC(=O)CC[C@H](NC(=O)CC[C@H](NC(=O)CCCCCCCCCCCCCCCCC(=O)O)C(=O)O)C(=O)O)C(=O)N[C@@H](CC(C)C)C(=O)N[C@@H](CC(C)C)C(=O)N[C@@H](CCC(=O)O)C(=O)N[C@@H](CCC(N)=O)C(=O)N[C@@H](CCC(=O)O)C(=O)N[C@@H](CCCCN)C(=O)N[C@@H](CCC(N)=O)C(=O)N[C@@H](CCC(=O)O)C(=O)N[C@@H](CCCCN)C(=O)N[C@@H](CCC(=O)O)C(=O)N[C@@H](CCCCN)C(=O)N[C@@H](CCC(N)=O)C(=O)N[C@@H](CCC(N)=O)C(=O)N[C@@H](C)C(=O)N[C@H](C(=O)N[C@H](C(=O)N[C@@H](CC(N)=O)C(=O)N[C@@H](C)C(=O)N[C@@H](CCC(N)=O)C(=O)N[C@H](C(=O)N[C@@H](CC(C)C)C(=O)N[C@@H](C)C(=O)N[C@@H](Cc1c[nH]cn1)C(=O)N[C@H](C(N)=O)C(C)C)[C@@H](C)CC)[C@@H](C)O)[C@@H](C)O)[C@@H](C)CC)C(C)C)C(C)C` [Compound 40] (H-IVLSLDVPIGLLQK([AEEA-AEEA-γGlu-γGlu-C18 diacid])LLEQEKQEKEKQQATTNAQILAHV-NH2) was run?
A: Its EC50 is 55.9 nM.

Q: How did the EC50 turn out when `CC[C@H](C)[C@H](N)C(=O)N[C@H](C(=O)N[C@@H](CC(C)C)C(=O)N[C@@H](CO)C(=O)N[C@@H](CC(C)C)C(=O)N[C@@H](CC(=O)O)C(=O)N[C@H](C(=O)N1CCC[C@H]1C(=O)N[C@H](C(=O)NCC(=O)N[C@@H](CC(C)C)C(=O)N[C@@H](CC(C)C)C(=O)N[C@@H](CCC(N)=O)C(=O)N[C@H](C(=O)N[C@@H](CC(C)C)C(=O)N[C@@H](CC(C)C)C(=O)N[C@@H](CCC(=O)O)C(=O)N[C@@H](CCC(N)=O)C(=O)N[C@@H](CCC(=O)O)C(=O)N[C@@H](CCCCN)C(=O)N[C@@H](CCCCNC(=O)COCCOCCNC(=O)COCCOCCNC(=O)CC[C@H](NC(=O)CC[C@H](NC(=O)CCCCCCCCCCCCCCCCC(=O)O)C(=O)O)C(=O)O)C(=O)N[C@@H](CCC(=O)O)C(=O)N[C@@H](CCCCN)C(=O)N[C@@H](CCC(=O)O)C(=O)N[C@@H](CCCCN)C(=O)N[C@@H](CCC(N)=O)C(=O)N[C@@H](CCC(N)=O)C(=O)N[C@@H](C)C(=O)N[C@H](C(=O)N[C@H](C(=O)N[C@@H](CC(N)=O)C(=O)N[C@@H](C)C(=O)N[C@@H](CCC(N)=O)C(=O)N[C@H](C(=O)N[C@@H](CC(C)C)C(=O)N[C@@H](C)C(=O)N[C@@H](Cc1c[nH]cn1)C(=O)N[C@H](C(N)=O)C(C)C)[C@@H](C)CC)[C@@H](C)O)[C@@H](C)O)[C@@H](C)CC)[C@@H](C)CC)C(C)C)C(C)C` [Compound 45] (H-IVLSLDVPIGLLQILLEQEKK([AEEA-AEEA-γGlu-γGlu-C18 diacid])EKEKQQATTNAQILAHV-NH2) was run?
A: Its EC50 is 27.7 nM.

Q: How did the EC50 turn out when `CC[C@H](C)[C@H](N)C(=O)N[C@H](C(=O)N[C@@H](CC(C)C)C(=O)N[C@@H](CO)C(=O)N[C@@H](CC(C)C)C(=O)N[C@@H](CC(=O)O)C(=O)N[C@H](C(=O)N1CCC[C@H]1C(=O)N[C@H](C(=O)NCC(=O)N[C@@H](CC(C)C)C(=O)N[C@@H](CC(C)C)C(=O)N[C@@H](CCC(N)=O)C(=O)N[C@H](C(=O)N[C@@H](CC(C)C)C(=O)N[C@@H](CC(C)C)C(=O)N[C@@H](CCC(=O)O)C(=O)N[C@@H](CCC(N)=O)C(=O)N[C@@H](CCC(=O)O)C(=O)N[C@@H](CCCCN)C(=O)N[C@@H](CCC(N)=O)C(=O)N[C@@H](CCC(=O)O)C(=O)N[C@@H](CCCCN)C(=O)N[C@@H](CCC(=O)O)C(=O)N[C@@H](CCCCN)C(=O)N[C@@H](CCCCNC(=O)COCCOCCNC(=O)COCCOCCNC(=O)CC[C@H](NC(=O)CC[C@H](NC(=O)CCCCCCCCCCCCCCCCC(=O)O)C(=O)O)C(=O)O)C(=O)N[C@@H](CCC(N)=O)C(=O)N[C@@H](C)C(=O)N[C@H](C(=O)N[C@@H](CCC(=O)O)C(=O)N[C@@H](CC(N)=O)C(=O)N[C@@H](C)C(=O)N[C@@H](CCC(N)=O)C(=O)N[C@H](C(=O)N[C@@H](CC(C)C)C(=O)N[C@@H](C)C(=O)N[C@@H](CCC(N)=O)C(=O)N[C@H](C(N)=O)C(C)C)[C@@H](C)CC)[C@@H](C)O)[C@@H](C)CC)[C@@H](C)CC)C(C)C)C(C)C` [Compound 54] (H-IVLSLDVPIGLLQILLEQEKQEKEKK([AEEA-AEEA-γGlu-γGlu-C18 diacid])QATENAQILAQV-NH2) was run?
A: Its EC50 is 4.26 nM.

Q: Which EC50 does the source give for `CC[C@H](C)[C@H](N)C(=O)N[C@H](C(=O)N[C@@H](CC(C)C)C(=O)N[C@@H](CO)C(=O)N[C@@H](CC(C)C)C(=O)N[C@@H](CC(=O)O)C(=O)N[C@H](C(=O)N1CCC[C@H]1C(=O)N[C@H](C(=O)NCC(=O)N[C@@H](CC(C)C)C(=O)N[C@@H](CC(C)C)C(=O)N[C@@H](CCC(N)=O)C(=O)N[C@H](C(=O)N[C@@H](CC(C)C)C(=O)N[C@@H](CCCCNC(=O)COCCOCCNC(=O)COCCOCCNC(=O)CC[C@H](NC(=O)CC[C@H](NC(=O)CCCCCCCCCCCCCCCCC(=O)O)C(=O)O)C(=O)O)C(=O)N[C@@H](CCC(=O)O)C(=O)N[C@@H](CCC(N)=O)C(=O)N[C@@H](CCC(=O)O)C(=O)N[C@@H](CCCCN)C(=O)N[C@@H](CCC(N)=O)C(=O)N[C@@H](CCC(=O)O)C(=O)N[C@@H](CCCCN)C(=O)N[C@@H](CCC(=O)O)C(=O)N[C@@H](CCCCN)C(=O)N[C@@H](CCC(N)=O)C(=O)N[C@@H](CCC(N)=O)C(=O)N[C@@H](C)C(=O)N[C@H](C(=O)N[C@H](C(=O)N[C@@H](CC(N)=O)C(=O)N[C@@H](C)C(=O)N[C@@H](CCC(N)=O)C(=O)N[C@H](C(=O)N[C@@H](CC(C)C)C(=O)N[C@@H](C)C(=O)N[C@@H](Cc1c[nH]cn1)C(=O)N[C@H](C(N)=O)C(C)C)[C@@H](C)CC)[C@@H](C)O)[C@@H](C)O)[C@@H](C)CC)[C@@H](C)CC)C(C)C)C(C)C` [Compound 42] (H-IVLSLDVPIGLLQILK([AEEA-AEEA-γGlu-γGlu-C18 diacid])EQEKQEKEKQQATTNAQILAHV-NH2) here?
A: The EC50 was 500 nM.

Q: Which EC50 does the source give for `CC[C@H](C)[C@H](N)C(=O)N[C@H](C(=O)N[C@@H](CC(C)C)C(=O)N[C@@H](CO)C(=O)N[C@@H](CC(C)C)C(=O)N[C@@H](CC(=O)O)C(=O)N[C@H](C(=O)N1CCC[C@H]1C(=O)N[C@H](C(=O)NCC(=O)N[C@@H](CC(C)C)C(=O)N[C@@H](CC(C)C)C(=O)N[C@@H](CCC(N)=O)C(=O)N[C@H](C(=O)N[C@@H](CC(C)C)C(=O)N[C@@H](CC(C)C)C(=O)N[C@@H](CCC(=O)O)C(=O)N[C@@H](CCCCNC(=O)COCCOCCNC(=O)COCCOCCNC(=O)CC[C@H](NC(=O)CC[C@H](NC(=O)CCCCCCCCCCCCCCCCC(=O)O)C(=O)O)C(=O)O)C(=O)N[C@@H](CCC(=O)O)C(=O)N[C@@H](CCCCN)C(=O)N[C@@H](CCC(N)=O)C(=O)N[C@@H](CCC(=O)O)C(=O)N[C@@H](CCCCN)C(=O)N[C@@H](CCC(=O)O)C(=O)N[C@@H](CCCCN)C(=O)N[C@@H](CCC(N)=O)C(=O)N[C@@H](CCC(N)=O)C(=O)N[C@@H](C)C(=O)N[C@H](C(=O)N[C@H](C(=O)N[C@@H](CC(N)=O)C(=O)N[C@@H](C)C(=O)N[C@@H](CCC(N)=O)C(=O)N[C@H](C(=O)N[C@@H](CC(C)C)C(=O)N[C@@H](C)C(=O)N[C@@H](Cc1c[nH]cn1)C(=O)N[C@H](C(N)=O)C(C)C)[C@@H](C)CC)[C@@H](C)O)[C@@H](C)O)[C@@H](C)CC)[C@@H](C)CC)C(C)C)C(C)C` [Compound 44] (H-IVLSLDVPIGLLQILLEK([AEEA-AEEA-γGlu-γGlu-C18 diacid])EKQEKEKQQATTNAQILAHV-NH2) here?
A: The EC50 was 13.4 nM.
